Experimental data as given in patent US10501425B2, “Microbiocidal oxadiazole derivatives” (SYNGENTA PARTICIPATIONS AG, priority 2015, dated 2019).

How the values were obtained:
[1] = system: Puccinia recondita f. Sp. Tritici; test: Puccinia recondita f. sp. tritici / wheat / leaf disc preventative (brown rust); format: in vivo; conditions: foliar, 200 ppm in the applied formulation, wheat leaf segments cv. Kanzler, preventative (inoculated 1 day after application), compared to untreated, read-out: disease control
Procedure, shortened: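 Sprayed at 200 ppm one day ahead of spore inoculation, wheat leaf segments of cultivar Kanzler sat on agar under 19° C., 75% relative humidity and alternating 12-hour light and dark. Efficacy was taken as percent disease control relative to untreated segments after 7 to 9 days.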

[2] = system: Glomerella lacenarium (Colletotrichum lagenarium); test: Glomerella lagenarium liquid culture / cucumber / preventative (anthracnose); format: cell-based; conditions: Colletotrichum orbiculare; 20 ppm in the applied formulation; liquid culture (PDB), growth inhibition measured photometrically 3 to 4 days after application; compared to untreated; read-out: disease control
Procedure, shortened: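 Conidia from cryogenic storage were mixed into potato dextrose broth. This was added to compound diluted from DMSO into 0.025% Tween20, tested at 20 ppm. Plates were incubated in the dark at 24 °C and 96% relative humidity, and growth was read photometrically after 2–7 days as % activity versus untreated check.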

Phakopsora pachyrhizi = Phakopsora pachyrhizi / soybean / leaf disc preventative (Asian soybean rust); format: in vivo; conditions: foliar, 200 ppm in the applied formulation, soybean leaf disks, compared to untreated, read-out: disease control
Description: Leaf disks or leaf segments of various plant species are cut from plants grown in a greenhouse. The cut leaf disks or segments are placed in multiwell plates (24-well format) onto water agar. The leaf disks are sprayed with a test solution before (preventative) or after (curative) inoculation. Compounds to be tested are prepared as DMSO solutions (max. 10 mg/ml) which are diluted to the appropriate concentration with 0.025% Tween20 just before spraying. The inoculated leaf disks or segments are incubated under defined conditions (temperature, relative humidity, light, etc.) according to the respective test system. A single evaluation of disease level is carried out 3 to 14 days after inoculation, depending on the pathosystem. Percent disease control relative to the untreated check leaf disks or segments is then calculated.
Soybean leaf disks are placed on water agar in multiwell plates (24-well format) and sprayed with the formulated test compound diluted in water. One day after application leaf discs are inoculated by spraying a spore suspension on the lower leaf surface. After an incubation period in a climate cabinet of 24-36 hours in darkness at 20° C. and 75% rh leaf disc are kept at 20° C. with 12 h light/day and 75% rh. The activity of a compound is assessed as percent disease control compared to untreated when an appropriate level of disease damage appears in untreated check leaf disks (12 to 14 days after application).
The following compounds at 200 ppm in the applied formulation give at least 80% disease control in this test when compared to untreated control leaf disks under the same conditions, which show extensive disease development.

[3] = system: Puccinia recondita f. Sp. Tritici; test: Puccinia recondita f. sp. tritici / wheat / leaf disc curative (brown rust); format: in vivo; conditions: foliar, 24 h, 200 ppm in the applied formulation, wheat leaf segments cv. Kanzler, curative (applied 1 day after inoculation), compared to untreated, read-out: disease control
Procedure, shortened: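 Read-out is percent disease control relative to untreated segments, assessed 6 to 8 days after treatment once check disease is adequate. Kanzler wheat leaf segments on agar receive fungal spores, then test compound (DMSO stock diluted in 0.025% Tween20 or water) 1 day later, under 19° C and 75% relative humidity.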

melting point | SMILES | pest or weed control at 200 ppm [1] | inhibition of growth at 20 ppm [2] | pest or weed control at 200 ppm (Phakopsora pachyrhizi) | pest or weed control at 200 ppm [3]
 | N#CCC(=O)NCCc1ccc(-c2noc(C(F)(F)F)n2)cc1 [Compound 1.90, 2-cyano-N-[2-[4-[5-(trifluoromethyl)-1,2,4-oxadiazol-3-yl]phenyl]ethyl]acetamide] | ≥ 80% | ≥ 80% | ≥ 80% | ≥ 80%
 | CC(=O)NCCc1ccc(-c2noc(C(F)(F)F)n2)cc1 [Compound 1.92, N-[2-[4-[5-(trifluoromethyl)-1,2,4-oxadiazol-3-yl]phenyl]ethyl]acetamide] | ≥ 80% | ≥ 80% | ≥ 80% | ≥ 80%
 | O=C(NCc1ccc(-c2noc(C(F)(F)F)n2)cc1)OCCCCCl [Compound 2.13, 4-chlorobutyl N-[[4-[5-(trifluoromethyl)-1,2,4-oxadiazol-3-yl]phenyl]methyl]carbamate] | ≥ 80% | ≥ 80% | ≥ 80% | ≥ 80%
 | CCCC(=O)NCc1ccc(-c2noc(C(F)(F)F)n2)c(F)c1F [Compound 1.51, N-[[2,3-difluoro-4-[5-(trifluoromethyl)-1,2,4-oxadiazol-3-yl]phenyl]methyl]butanamide] | ≥ 80% | ≥ 80% | ≥ 80% | ≥ 80%
 | CCC(C)C(=O)NCc1ccc(-c2noc(C(F)(F)F)n2)cc1F (stereo not drawn) [Compound 1.41, N-[[2-fluoro-4-[5-(trifluoromethyl)-1,2,4-oxadiazol-3-yl)phenyl]methyl]-2-methyl-butanamide] | ≥ 80% | ≥ 80% | ≥ 80% | ≥ 80%
 | O=C(CC(F)(F)F)NCc1ccc(-c2noc(C(F)(F)F)n2)c(F)c1F [Compound 1.63, N-[[2,3-difluoro-4-[5-(trifluoromethyl)-1,2,4-oxadiazol-3-yl]phenyl]methyl]-3,3,3-trifluoro-propanamide] | ≥ 80% | ≥ 80% | ≥ 80% | ≥ 80%
 | CCCCCC(=O)NCc1ccc(-c2noc(C(F)(F)F)n2)cc1 [Compound 1.8, N-[[4-[5-(trifluoromethyl)-1,2,4-oxadiazol-3-yl]phenyl]methyl]hexanamide] | ≥ 80% | ≥ 80% | ≥ 80% | ≥ 80%
163 to 165 °C | CCC(=O)NCc1ccc(-c2noc(C(F)(F)F)n2)cc1OC [Compound 1.30, N-[[2-methoxy-4-[5-(trifluoromethyl)-1,2,4-oxadiazol-3-yl]phenyl]methyl]propanamide] |  |  |  | 
 | CCCCOC(=O)NCc1ccc(-c2noc(C(F)(F)F)n2)cc1 [Compound 2.11, butyl N-[[4-[5-(trifluoromethyl)-1,2,4-oxadiazol-3-yl]phenyl]methyl]carbamate] | ≥ 80% | ≥ 80% | ≥ 80% | ≥ 80%
 | CC(=O)NCc1ccc(-c2noc(C(F)(F)F)n2)cc1F [Compound 1.48, N-[[2-fluoro-4-[5-(trifluoromethyl)-1,2,4-oxadiazol-3-yl]phenyl]methyl]acetamide] | ≥ 80% | ≥ 80% | ≥ 80% | ≥ 80%
 | CC(C)C(=O)NCCc1ccc(-c2noc(C(F)(F)F)n2)cc1 [Compound 1.83, 2-methyl-N-[2-[4-[5-(trifluoromethyl)-1,2,4-oxadiazol-3-yl]phenyl]ethyl]propanamide] | ≥ 80% | ≥ 80% | ≥ 80% | ≥ 80%
 | COCC(=O)NCc1ccc(-c2noc(C(F)(F)F)n2)c(F)c1F [Compound 1.56, N-[[2,3-difluoro-4-[5-(trifluoromethyl)-1,2,4-oxadiazol-3-yl]phenyl]methyl]-2-methoxy-acetamide] | ≥ 80% | ≥ 80% | ≥ 80% | ≥ 80%
 | O=C(NCc1ccc(-c2noc(C(F)(F)F)n2)cc1)OCCCCl [Compound 2.16, 3-chloropropyl N-[[4-[5-(trifluoromethyl)-1,2,4-oxadiazol-3-yl]phenyl]methyl]carbamate] | ≥ 80% | ≥ 80% | ≥ 80% | ≥ 80%
 | CC(C)CC(=O)NCc1ccc(-c2noc(C(F)(F)F)n2)cc1 [Compound 1.12, 3-methyl-N-[[4-[5-(trifluoromethyl)-1,2,4-oxadiazol-3-yl]phenyl]methyl]butanamide] | ≥ 80% | ≥ 80% | ≥ 80% | ≥ 80%
 | COCC(=O)NCc1ccc(-c2noc(C(F)(F)F)n2)c(F)c1 [Compound 1.80] | ≥ 80% | ≥ 80% | ≥ 80% | ≥ 80%
 | CCONC(=O)NCc1ccc(-c2noc(C(F)(F)F)n2)cc1 [Compound 3.14, 1-ethoxy-3-[[4-[5-(trifluoromethyl)-1,2,4-oxadiazol-3-yl]phenyl]methyl]urea] | ≥ 80% | ≥ 80% | ≥ 80% | ≥ 80%
 | CCN(CC)C(=O)NCc1ccc(-c2noc(C(F)(F)F)n2)cc1 [Compound 3.12, 1,1-diethyl-3-[[4-[5-(trifluoromethyl)-1,2,4-oxadiazol-3-yl]phenyl]methyl]urea] | ≥ 80% | ≥ 80% | ≥ 80% | ≥ 80%
 | CC(=O)NCc1ccc(-c2noc(C(F)(F)F)n2)c(F)c1 [Compound 1.47, N-[[3-fluoro-4-[5-(trifluoromethyl)-1,2,4-oxadiazol-3-yl]phenyl]methyl]acetamide] | ≥ 80% | ≥ 80% | ≥ 80% | ≥ 80%
 | CC(C)OC(=O)NCc1ccc(-c2noc(C(F)(F)F)n2)cc1 [Compound 2.14, isopropyl N-[[4-[5-(trifluoromethyl)-1,2,4-oxadiazol-3-yl]phenyl]methyl]carbamate] | ≥ 80% | ≥ 80% | ≥ 80% | ≥ 80%
 | C=CCCC(=O)NCc1ccc(-c2noc(C(F)(F)F)n2)cc1 [Compound 1.7, N-[[4-[5-(trifluoromethyl)-1,2,4-oxadiazol-3-yl]phenyl]methyl]pent-4-enamide] | ≥ 80% | ≥ 80% | ≥ 80% | ≥ 80%
 | COCC(=O)NCCc1ccc(-c2noc(C(F)(F)F)n2)cc1 [Compound 1.86, 2-methoxy-N-[2-[4-[5-(trifluoromethyl)-1,2,4-oxadiazol-3-yl]phenyl]ethyl]acetamide] | ≥ 80% | ≥ 80% | ≥ 80% | ≥ 80%
